From ChEMBL document CHEMBL2434824, “Synthesis, characterization and molecular docking studies of some new 1,3,4-oxadiazolines bearing 6-methylpyridine moiety for antimicrobial property” (Eur J Med Chem, 2013) come the findings set out here.

Active and inactive are the calls of the source. The rule behind the calls is not given here.

The subject of one assay is Aspergillus flavus. Kind of assay: Antifungal activity against Aspergillus flavus at 0.5 to 1 mg/ml at 25 degC after 3 days by well plate method. Type of assay: functional, organism-based.
Another assay relates to Escherichia coli. As to the kind of experiment: Antibacterial activity against Escherichia coli ATCC 25922 at 0.5 to 1 mg/ml at 37 degC after 18 hrs by well plate method. Type of assay: functional, organism-based.
In assay [1] the test system is Radical scavenging activity. As to the kind of experiment: Antioxidant activity assessed as DPPH radical scavenging activity at 100 ug after 10 mins by UV-Visible spectrophotometry. Type of assay: functional.
A further assay has as its system Pseudomonas aeruginosa. Kind of assay: Antibacterial activity against Pseudomonas aeruginosa ATCC 27853 at 0.5 to 1 mg/ml at 37 degC after 18 hrs by well plate method. Type of assay: functional, organism-based.
For a further assay, the system named is Staphylococcus aureus. Kind of assay: Antibacterial activity against Staphylococcus aureus ATCC 25923 at 0.5 to 1 mg/ml at 37 degC after 18 hrs by well plate method. Type of assay: functional, organism-based.
Assay [2] is described as follows: Antifungal activity against Chrysosporium keratinophilum at 0.5 to 1 mg/ml at 25 degC after 3 days by well plate method. The class given is functional.

In the case of `CC(=O)N1N=C(c2ccc(C)nc2)OC1(C)c1cccc(Br)c1` (stereo unspecified), the result (in the assay on Aspergillus flavus; with Escherichia coli; in the assay on Pseudomonas aeruginosa; in the assay on Staphylococcus aureus; in assay [2]) was Active. Moreover, in assay [1], the Activity is 32.9%.
In the case of `CN[C@@H]1[C@H](O[C@H]2[C@H](O[C@H]3[C@H](O)[C@@H](O)[C@H](N=C(N)N)[C@@H](O)[C@@H]3N=C(N)N)O[C@@H](C)[C@]2(O)C=O)O[C@@H](CO)[C@H](O)[C@H]1O`, the result with Escherichia coli, with Pseudomonas aeruginosa and in the assay on Staphylococcus aureus was Active.
For the compound `CC(=O)N1N=C(c2ccc(C)nc2)OC1(C)c1ccc(-c2ccccc2)cc1` (stereo unspecified), in assay [1], the Activity was determined as 47.7%.
Regarding `OC(Cn1cncn1)(Cn1cncn1)c1ccc(F)cc1F`, the outcome (with Aspergillus flavus; in assay [2]) was Active.
As for `COc1ccc2cc(C3OC(c4ccc(C)nc4)=NN3C(C)=O)ccc2c1` (stereo unspecified), the Activity in assay [1] amounted to 27.5%.
As to `CC(=O)N1N=C(c2ccc(C)nc2)OC1c1ccc(Cl)cc1Cl` (stereo unspecified), the result (in the assay with Aspergillus flavus; with Escherichia coli; with Pseudomonas aeruginosa; in the assay on Staphylococcus aureus; in assay [2]) was Active. In addition, the Activity in assay [1] stood at 62.3%.
As to `CC(=O)N1N=C(c2ccc(C)nc2)OC1c1ccc(O)c(O)c1` (stereo unspecified), the Activity in assay [1] is 13.3%.
As to `CC(=O)c1ccc(C2(C)OC(c3ccc(C)nc3)=NN2C(C)=O)cc1` (stereo unspecified), in assay [1], the Activity came out at 42.3%.
On the same count and under the same terms, next, `CC(=O)N1N=C(c2ccc(C)nc2)OC1c1cccs1` (stereo unspecified): 12%.
Regarding `CC(=O)N1N=C(c2ccc(C)nc2)OC1c1ccc(Br)cc1` (stereo unspecified), the outcome (with Aspergillus flavus; with Escherichia coli; in the assay with Pseudomonas aeruginosa; with Staphylococcus aureus; in assay [2]) was Active. Further, in assay [1], the Activity was found to be 65.5%.
On to `COc1ccc(C2OC(c3ccc(C)nc3)=NN2C(C)=O)c(OC)c1` (stereo unspecified), for which, in assay [1], the Activity was 24.3%.
For `CC(=O)N1N=C(c2ccc(C)nc2)OC1c1ccc(-c2ccccc2)cc1` (stereo unspecified), in assay [1], the Activity worked out at 15.6%.
Turning to `Cc1cc(C(C)(C)C)c(O)c(C(C)(C)C)c1`, in assay [1], the Activity turned out to be 92.4%.
As for `CC(=O)N1N=C(c2ccc(C)nc2)OC1(C)c1ccc([N+](=O)[O-])cc1` (stereo unspecified), the result with Escherichia coli, with Pseudomonas aeruginosa and with Staphylococcus aureus was Active. Besides, in assay [1], the Activity is 52.4%.
As for `CC(=O)N1N=C(c2ccc(C)nc2)OC1c1cccc(Cl)c1F` (stereo unspecified), the result (in the assay on Aspergillus flavus; with Escherichia coli; in the assay on Pseudomonas aeruginosa; in the assay on Staphylococcus aureus; in assay [2]) was Active. The Activity in assay [1] amounted to 37.3%.
As to `CC(=O)N1N=C(c2ccc(C)nc2)OC1c1ccc(Cl)cc1` (stereo unspecified), the outcome in the assay with Escherichia coli, in the assay on Pseudomonas aeruginosa and with Staphylococcus aureus was Active. In addition, the Activity in assay [1] was found to be 49.2%.
On to `CC(=O)N1N=C(c2ccc(C)nc2)OC1(C)c1sccc1Br` (stereo unspecified), for which the result (in the assay on Aspergillus flavus; with Escherichia coli; with Pseudomonas aeruginosa; in the assay with Staphylococcus aureus; in assay [2]) was Active. For the same compound, in assay [1], the Activity was 44.2%.
